Test results as given in publication PMC8016998, “Identification of potential therapeutic antimicrobial peptides against Acinetobacter baumannii in a mouse model of pneumonia” (Scientific Reports, 2021).
Values after ≈ are worked out from the molar mass of the structure shown. No end group written: not given here.

Legend:
[1] = test system: Acinetobacter baumannii 17,978; assay type: cell-based; settings: 17,978, 24 h;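 note: CLSI broth microdilution in 96-well polypropylene plates, MBC taken as lowest concentration giving no growth when clear wells were subcultured on LB agar for 24 h at 37 °C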
MDRAB strain MO91 = assay type: cell-based, Acinetobacter baumannii; settings: 24 h
Method: (§1) All AMPs and TP4 derivatives used in this study were synthesized by Kelowna International Scientific Inc. (Taipei City, Taiwan) with more than 95% purity, and their molecular weights were verified by mass spectrum analysis. MBC were determined by extending the MIC procedure in sterilized 96-well polypropylene microtiter plates according to the broth microdilution guidelines of the Clinical and Laboratory Standards Institute with some modification. Briefly, 5 × 10^5 CFU/mL of bacteria were inoculated in LB medium containing AMPs or antibiotic at final concentrations ranging from 512 to 1 μg/mL (from serial twofold dilutions). After incubation for 24 h at 37 °C, the lowest concentration showing no visible growth was used as the MIC value. In addition, 10 µL was drawn from each well with no visible turbidity onto LB agar plates and incubated for 24 h at 37 °C. The lowest concentration showing no visible growth on agar subculture was used as the MBC value. All experiments were performed in triplicate.

MDRAB strain BF50 = assay type: cell-based, Acinetobacter baumannii; settings: 24 h
Method: as §1

[2] = test system: Acinetobacter baumannii 19,606; assay type: cell-based; settings: 19,606, 24 h
Method: MBC were determined by extending the MIC procedure in sterilized 96-well polypropylene microtiter plates according to the broth microdilution guidelines of the Clinical and Laboratory Standards Institute with some modification[47]. […] In addition, 10 µL was drawn from each well with no visible turbidity onto LB agar plates and incubated for 24 h at 37 °C. The lowest concentration showing no visible growth on agar subculture was used as the MBC value. All experiments were performed in triplicate.

Row | Molecule | MBC [1] [µg/mL] | MIC [1] [µg/mL] | MBC (MDRAB strain MO91) [µg/mL] | MIC (MDRAB strain MO91) [µg/mL] | MBC (MDRAB strain BF50) [µg/mL] | MIC (MDRAB strain BF50) [µg/mL] | MBC [2] [µg/mL] | MIC [2] [µg/mL]
1 | FIHHIIGGLFSAGKAIHRHHRRRRR [L19H/I20H] | 32 | 32 | 32 | 32 | 32 | 32 | 64 | 64
2 | CC[C@H](C)[C@H](NC(=O)[C@H](CO)NC(=O)[C@H](Cc1ccccc1)NC(=O)[C@H](CC(C)C)NC(=O)CNC(=O)CNC(=O)[C@@H](NC(=O)[C@@H](NC(=O)[C@H](Cc1c[nH]cn1)NC(=O)[C@H](Cc1c[nH]cn1)NC(=O)[C@@H](NC(=O)[C@@H](N)Cc1ccccc1)[C@@H](C)CC)[C@@H](C)CC)[C@@H](C)CC)C(=O)NCC(=O)N[C@@H](CCCCN)C(=O)N[C@H](C(=O)N[C@H](C(=O)N[C@@H](Cc1c[nH]cn1)C(=O)N[C@@H](CCCNC(=N)N)C(=O)N[C@@H](CC(C)C)C(=O)N[C@H](C(=O)N[C@@H](CCCNC(=N)N)C(=O)N[C@@H](CCCNC(=N)N)C(=O)N[C@@H](CCCNC(=N)N)C(=O)N[C@@H](CCCNC(=N)N)C(=O)N[C@@H](CCCNC(=N)N)C(=O)O)[C@@H](C)CC)[C@@H](C)CC)[C@@H](C)CC [A12I/A15I] | 64 (≈ 20.9 µM) | 64 (≈ 20.9 µM) | 128 (≈ 41.8 µM) | 32 (≈ 10.4 µM) | 128 (≈ 41.8 µM) | 64 (≈ 20.9 µM) | 128 (≈ 41.8 µM) | 32 (≈ 10.4 µM)
3 | FIHHAAGGLFSAGKAIHRLIRRRRR [I5A/I6A] | 32 | 32 | 128 | 64 | 64 | 32 | 64 | 64
4 | FIHHIIGGLFSAGKARHRLIRRRRR [Peptide I16R] | 128 | 128 | 256 | 64 | 128 | 64 | 64 | 64
5 | AAHHIIGGLFSAGKAIHRLIRRRRR [F1A/I2A] | 32 | 32 | 32 | 32 | 32 | 16 | 16 | 16
6 | FIHHIIGGLFSAGKAIHSLIHRRRR [R18S/R21H] | 32 | 16 | 32 | 32 | 64 | 16 | 32 | 32
7 | FIHHIIGGAASAGKAIHRLIRRRRR [L9A/F10A] | 64 | 64 | 128 | 128 | 64 | 64 | 128 | 64
8 | FIHHIIGGLFSAGKAAHRLIRRRRR [Peptide I16A] | 32 | 16 | 32 | 16 | 16 | 16 | 32 | 32
9 | FIHHIIGGLFSAGKAEHRLIRRRRR [Peptide I16E] | > 256 | > 256 | > 256 | > 256 | > 256 | > 256 | > 256 | > 256
10 | FIHHIIGGLFSVGKHIHRLIRRRRR [A12V/A15H] | 32 | 16 | 256 | 16 | 128 | 16 | 32 | 16
11 | FIAAIIGGLFSAGKAIHRLIRRRRR [H3A/H4A] | 128 | 64 | 256 | 64 | 128 | 64 | 64 | 64
